Assay results reported in patent US20150164907A1, “COMPOSITIONS AND METHODS FOR TREATING DISEASE” (ANGION BIOMEDICA CORP., priority 2013, published 2015).
pIC50: −log10 of the molar value. Where two headings read alike, the source gives them in different places.

System: SK-BR-3 breast cancer cells
Experiment: Proliferation of SK-BR-3 breast cancer cells, checkerboard design, Cell Titer Glo after 7 days
Format: cell-based
Settings: for pIC50: Homo sapiens
Protocol: The effect of ATRA in combination with GDC-0941 or NVP-BEZ235 on the proliferation of SK-BR-3 breast cancer cells was evaluated. […] To test the combination of ATRA and PI3Km/TOR inhibitors, cells were plated in a 96-well plate and treated with compounds in a “checkerboard” design. After 7 days the cell proliferation was determined using the Cell Titer Glo reagent (Promega). […] The bliss additivity model predicts the shape of the curve and magnitude of growth inhibition if the effects of two compounds is additive.
Another method to determine the interaction between two compounds is the combination index (CI) method, which can be calculated by the computer program Calcusyn.

[1] = SK-BR-3, 168 h, in the absence of ATRA, 7 days, read-out: estimated IC50, proliferation of SK-BR-3 growth
[2] = SK-BR-3, 168 h, in the presence of 10 nM ATRA, 7 days, read-out: IC50, proliferation of SK-BR-3 cells

| SMILES | pIC50 [1] | pIC50 [2] | inhibition of cell proliferation by ATRA by itself (10 nM ATRA alone) | pIC50 (SK-BR-3, ATRA alone, read-out: estimated IC50, proliferation of SK-BR-3 cells) |
| --- | --- | --- | --- | --- |
| CS(=O)(=O)N1CCN(Cc2cc3nc(-c4cccc5[nH]ncc45)nc(N4CCOCC4)c3s2)CC1 [GDC-0941, 2-(1H-indazol-4-yl)-6-(4-methanesulfonyl-piperazin-1-ylmethyl)-4-morpholin-4-yl-thieno[3,2-d]pyrimidine] | 6.90 | 7.46 | – | – |
| Cn1c(=O)n(-c2ccc(C(C)(C)C#N)cc2)c2c3cc(-c4cnc5ccccc5c4)ccc3ncc21 [NVP-BEZ235] | 6.84 | 7.24 | – | – |
| CC1=C(/C=C/C(C)=C/C=C/C(C)=C/C(=O)O)C(C)(C)CCC1 [ATRA, all-trans retinoic acid] | – | – | only mildly inhibited cell proliferation | 7.40 |
